Test results published in patent publication US20220151230A1, “SPECIFICALLY SUBSTITUTED 3-(2-HALOGEN-6-ALKYL-4-PROPINYLPHENYL)-3-PYRROLIN-2-ONES AND TO THE USE THEREOF AS HERBICIDES” (Bayer Aktiengesellschaft, priority 2019, published 2022).

How the values were obtained:
ALOMY [1] = assay: Pre-emergence herbicidal effect against ALOMY; assay type: in vivo, Alopecurus myosuroides; settings: 320 g/ha, scored visually after 3 weeks vs untreated controls, 100% = plants have died
Excerpt: (§1) Seeds of monocotyledonous and dicotyledonous weed plants and crop plants are laid out in sandy loam soil in wood-fiber pots and covered with soil. The compounds of the invention, formulated in the form of wettable powders (WP) or as emulsion concentrates (EC), are then applied to the surface of the covering soil as aqueous suspension or emulsion at a water application rate equating to 600 to 800 L/ha with addition of 0.2% wetting agent.
(§2) After the treatment, the pots are placed in a greenhouse and kept under good growth conditions for the trial plants. The damage to the test plants is scored visually after a test period of 3 weeks by comparison with untreated controls (herbicidal activity in percent (%): 100% activity=the plants have died, 0% activity=like control plants).

AVEFA [2] = assay: Pre-emergence herbicidal effect against AVEFA; assay type: in vivo, Avena fatua; settings: 320 g/ha, scored visually after 3 weeks vs untreated controls, 100% = plants have died
Excerpt: as §1, §2

DIGSA [3] = assay: Pre-emergence herbicidal effect against DIGSA; assay type: in vivo, Digitaria sanguinalis; settings: 320 g/ha, scored visually after 3 weeks vs untreated controls, 100% = plants have died
Excerpt: as §1, §2

LOLRI [4] = assay: Pre-emergence herbicidal effect against LOLRI; assay type: in vivo, Lolium rigidum; settings: 320 g/ha, scored visually after 3 weeks vs untreated controls, 100% = plants have died
Excerpt: as §1, §2

SETVI [5] = assay: Pre-emergence herbicidal effect against SETVI; assay type: in vivo, Setaria viridis; settings: 320 g/ha, scored visually after 3 weeks vs untreated controls, 100% = plants have died
Excerpt: as §1, §2

VIOTR = assay: Pre-emergence herbicidal effect against VIOTR; assay type: in vivo, Viola tricolor; settings: 320 g/ha, scored visually after 3 weeks vs untreated controls, 100% = plants have died
Excerpt: as §1, §2

ECHCG [6] = assay: Pre-emergence herbicidal effect against ECHCG; assay type: in vivo, Echinochloa crus-galli; settings: 320 g/ha, scored visually after 3 weeks vs untreated controls, 100% = plants have died
Excerpt: as §1, §2

ALOMY [7] = assay: Post-emergence herbicidal effect against ALOMY; assay type: in vivo, Alopecurus myosuroides; settings: one-leaf stage, 80 g/ha, assessed visually after about 3 weeks vs untreated controls, 100% = plants have died
Procedure: (§3) Seeds of monocotyledonous and dicotyledonous weed and crop plants are laid out in sandy loam soil in wood-fiber pots, covered with soil and cultivated in a greenhouse under good growth conditions. 2 to 3 weeks after sowing, the test plants are treated at the one-leaf stage. The compounds of the invention, formulated in the form of wettable powders (WP) or as emulsion concentrates (EC), are then sprayed onto the green parts of the plants as aqueous suspension or emulsion at a water application rate equating to 600 to 800 l/ha with addition of 0.2% wetting agent. After the test plants have been left to stand in the greenhouse under optimal growth conditions for about 3 weeks, the action of the preparations is assessed visually in comparison to untreated controls (herbicidal action in percent (%): 100% activity=the plants have died, 0% activity=like control plants).

AVEFA [8] = assay: Post-emergence herbicidal effect against AVEFA; assay type: in vivo, Avena fatua; settings: one-leaf stage, 80 g/ha, assessed visually after about 3 weeks vs untreated controls, 100% = plants have died
Procedure: as §3

DIGSA [9] = assay: Post-emergence herbicidal effect against DIGSA; assay type: in vivo, Digitaria sanguinalis; settings: one-leaf stage, 80 g/ha, assessed visually after about 3 weeks vs untreated controls, 100% = plants have died
Procedure: as §3

ECHCG [10] = assay: Post-emergence herbicidal effect against ECHCG; assay type: in vivo, Echinochloa crus-galli; settings: one-leaf stage, 80 g/ha, assessed visually after about 3 weeks vs untreated controls, 100% = plants have died
Procedure: as §3

LOLRI [11] = assay: Post-emergence herbicidal effect against LOLRI; assay type: in vivo, Lolium rigidum; settings: one-leaf stage, 80 g/ha, assessed visually after about 3 weeks vs untreated controls, 100% = plants have died
Procedure: as §3

SETVI [12] = assay: Post-emergence herbicidal effect against SETVI; assay type: in vivo, Setaria viridis; settings: one-leaf stage, 80 g/ha, assessed visually after about 3 weeks vs untreated controls, 100% = plants have died
Procedure: as §3

SMILES	Pre-emergence action [%] against ALOMY (ALOMY [1]) [%]	Pre-emergence action [%] against AVEFA (AVEFA [2]) [%]	Pre-emergence action [%] against DIGSA (DIGSA [3]) [%]	Pre-emergence action [%] against LOLRI (LOLRI [4]) [%]	Pre-emergence action [%] against SETVI (SETVI [5]) [%]	Pre-emergence action [%] against VIOTR (VIOTR) [%]	Pre-emergence action [%] against ECHCG (ECHCG [6]) [%]	Post-emergence action [%] against ALOMY (ALOMY [7]) [%]	Post-emergence action [%] against AVEFA (AVEFA [8]) [%]	Post-emergence action [%] against DIGSA (DIGSA [9]) [%]	Post-emergence action [%] against ECHCG (ECHCG [10]) [%]	Post-emergence action [%] against LOLRI (LOLRI [11]) [%]	Post-emergence action [%] against SETVI (SETVI [12]) [%]
CC#Cc1cc(C)c(C2=C(O)C3(CCCC(OCCC)C3)NC2=O)c(Br)c1 (stereo not shown) [Example D5]	100	100	100	100	100	100	100	100	100	100	100	100	100
CC#Cc1cc(C)c(C2=C(O)C3(CCCC(OCCOC)C3)NC2=O)c(Br)c1 (stereo not shown) [Example D6]	100	100	100	100	100	100	100	100	100	100	100	100	100
CC#Cc1cc(C)c(C2=C(O)C3(CCCC(OCC(C)C)C3)NC2=O)c(Cl)c1 (stereo not shown) [Example D9]	100	100	100	100	100	100	100	100	90	90	100	90	100
CC#Cc1cc(Br)c(C2=C(O)C3(CCCC(OCCOC)C3)NC2=O)c(C2CC2)c1 (stereo not shown) [Example D11]	100	100	100	100	100	100	100	100	–	100	100	100	100
CC#Cc1cc(Cl)c(C2=C(O)C3(CCC(OCC)CC3)NC2=O)c(CC)c1 (stereo not shown) [Example E12]	90	90	100	100	100	100	100	–	–	–	100	–	100
CC#Cc1cc(C)c(C2=C(O)C3(CCC(OCCOC)CC3)NC2=O)c(Cl)c1 (stereo not shown) [Example E16]	100	100	100	100	100	100	100	100	100	100	100	100	100
CC#Cc1cc(Cl)c(C2=C(O)C3(CCC(OC)CC3)NC2=O)c(CC)c1 (stereo not shown) [Example E20]	100	100	100	90	100	100	100	–	90	100	100	80	100
CC#Cc1cc(Cl)c(C2=C(O)C3(CCC(OC)CC3)NC2=O)c(C2CC2)c1 (stereo not shown) [Example E24]	100	100	100	100	100	100	100	100	100	–	100	100	100
CC#Cc1cc(Br)c(C2=C(O)C3(CCC(OC)CC3)NC2=O)c(CC)c1 (stereo not shown) [Example E25]	–	–	–	–	–	80	–	90	–	–	–	–	90
CC#Cc1cc(Br)c(C2=C(O)C3(CCC(OC)CC3)NC2=O)c(C2CC2)c1 (stereo not shown) [Example E26]	100	90	100	100	100	90	100	100	–	100	100	100	100
CC#Cc1cc(Cl)c(C2=C(OC(=O)OC)C3(CCC(OC)CC3)NC2=O)c(CC)c1 (stereo not shown) [Example P24]	100	100	100	100	100	–	90	100	90	90	100	–	100
CC#Cc1cc(C)c(C2=C(OC(=O)OCC)C3(CCCC(OCCOC)C3)NC2=O)c(Br)c1 (stereo not shown) [Example Q4]	100	100	100	100	100	–	100	100	90	–	100	100	100
CC#Cc1cc(C)c(C2=C(OC(=O)OC)C3(CCCC(OCC(C)C)C3)NC2=O)c(Cl)c1 (stereo not shown) [Example Q6]	100	90	100	100	100	–	100	100	100	100	100	100	100
CC#Cc1cc(C)c(C2=C(OC(=O)OCC)C3(CCCC(OCC(C)C)C3)NC2=O)c(Cl)c1 (stereo not shown) [Example Q8]	100	100	100	100	100	–	100	100	100	–	100	90	100
